Consider 19 compounds from the OPERA property sets (Mansouri et al. 2018).

`Clc1ccc2oc3c(Cl)c(Cl)c(Cl)c(Cl)c3c2c1` returned a lipophilicity (logP) of 6.79.

As for `Clc1cc2oc3c(Cl)c(Cl)ccc3c2cc1Cl`, the logP worked out at 6.31.

In turn, `Clc1cc(Cl)c2c(oc3c(Cl)cccc32)c1Cl` yielded a logP of 6.31.

With `Clc1cc(Cl)c2c(oc3ccc(Cl)c(Cl)c32)c1Cl`, the logP amounted to 6.51.

The compound `Clc1cc2oc3ccc(Cl)c(Cl)c3c2cc1Cl` returned a logP of 6.23.

`Clc1cc2c(oc3c(Cl)c(Cl)c(Cl)c(Cl)c32)c(Cl)c1Cl` had a logP of 7.92.

The compound `Clc1cc2oc3cc(Cl)c(Cl)c(Cl)c3c2cc1Cl` came in with a log partition coefficient (logP) of 6.79.

For the compound `Clc1cc2c(oc3c(Cl)cccc32)c(Cl)c1Cl`, the logP was 6.11.

Regarding `Clc1cc(Cl)c2c(c1)oc1c(Cl)cc(Cl)cc12`, the logP came out at 6.37.

The compound `Clc1ccc2c(c1)oc1c(Cl)c(Cl)cc(Cl)c12` returned a logP of 6.23.

The compound `Clc1cc(Cl)c2oc3cc(Cl)c(Cl)cc3c2c1` registered a logP of 6.73.

Take `Clc1cc(Cl)c2oc3c(Cl)c(Cl)c(Cl)cc3c2c1`: the logP is 6.59.

As for `Clc1cc(Cl)c2oc3c(Cl)c(Cl)cc(Cl)c3c2c1`, the logP was 6.24.

In the case of `Clc1cc2oc3c(Cl)c(Cl)c(Cl)cc3c2cc1Cl`, the logP turned out to be 6.92.

Take `Clc1cc2oc3cc(Cl)c(Cl)cc3c2cc1Cl`: the logP was 6.53.

The compound `Clc1cc(Cl)c2oc3c(Cl)c(Cl)ccc3c2c1` gave a logP of 6.25.

`Clc1cc(Cl)c2c(c1)oc1cc(Cl)cc(Cl)c12` returned a logP of 6.34.

Consider `Clc1cc(Cl)c2oc3c(Cl)ccc(Cl)c3c2c1Cl`, for which the logP turned out to be 6.59.

Compound `Clc1c(Cl)c(Cl)c2c(oc3ccccc32)c1Cl` registered a logP of 6.17.
